Results reported in PubChem BioAssay AID248 (DTP/NCI, 2004).
“And” between values parts separate entries of the source, which are not always exact repeats. Equal values may be shown once. Inconclusive results and toxic doses are left out. No stated cut-off is given here; in the data, active means T/C of 150% or more; inactive means T/C below 125%.

System: L1210 leukemia ip in BDF1 mice, survival T/C
Assay: NCI In Vivo Anticancer Drug Screen. Data for tumor model L1210 Leukemia (intraperitoneal) in B6D2F1 (BDF1) mice
Details: endpoint: mean survival time, higher = longer survival
Summary of the method: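 Survival endpoint. Drug-treated group vs vehicle group, expressed as T divided by C. Tumor passaged by transplantation.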

Measured: T/C

O=NN(CCCl)C(=O)NC1CCCCC1
active: dose: 0.13 mg/kg/injection, schedule: Q03HX040 (oral), vehicle: saline 153 % of control | dose: 3.12 mg/kg/injection, schedule: Q01DX Z (ip), vehicle: carboxymethylcellulose (CMC) 172 % of control | dose: 6.0 mg/kg/injection, schedule: Q02DX005 (ip), vehicle: carboxymethylcellulose (CMC) 154 % of control | dose: 6.0 mg/kg/injection, schedule: Q02DX006 (ip), vehicle: carboxymethylcellulose (CMC) 158 % of control | dose: 6.0 mg/kg/injection, schedule: Q02DX007 (ip), vehicle: carboxymethylcellulose (CMC) 163 % of control | dose: 6.25 mg/kg/injection, schedule: Q01DX005 (ip), vehicle: carboxymethylcellulose (CMC) 157 % of control | dose: 6.7 mg/kg/injection, schedule: Q04DX004 (ip), vehicle: Klucel (hydroxypropylcellulose) (HPC) 159 % of control
inactive: dose: 0.06 mg/kg/injection, schedule: Q03HX024 (ip), vehicle: saline 101 % of control | dose: 0.06 mg/kg/injection, schedule: Q03HX024 (oral), vehicle: saline 98 % of control | dose: 0.06 mg/kg/injection, schedule: Q03HX040 (oral), vehicle: saline 115 % of control | dose: 0.13 mg/kg/injection, schedule: Q03HX024 (oral), vehicle: saline 108 % of control | dose: 0.16 mg/kg/injection, schedule: Q#B X003 (ip), vehicle: carboxymethylcellulose (CMC) 103 % of control | dose: 0.33 mg/kg/injection, schedule: Q#B X003 (ip), vehicle: carboxymethylcellulose (CMC) 95 % of control | dose: 0.39 mg/kg/injection, schedule: Q03HX040 (ip), vehicle: carboxymethylcellulose (CMC) 100 % of control | dose: 0.5 mg/kg/injection, schedule: Q01DX005 (ip), vehicle: saline 101 % of control | dose: 0.66 mg/kg/injection, schedule: Q#B X003 (ip), vehicle: carboxymethylcellulose (CMC) 97 % of control | dose: 0.78 mg/kg/injection, schedule: Q03HX024 (ip), vehicle: carboxymethylcellulose (CMC) 106 % of control | dose: 1.0 mg/kg/injection, schedule: Q01DX001 (ip), vehicle: saline 104 % of control | dose: 1.0 mg/kg/injection, schedule: Q01DX001 (oral), vehicle: saline 100 % of control | dose: 1.0 mg/kg/injection, schedule: Q01DX005 (ip), vehicle: saline 104 % of control | dose: 1.0 mg/kg/injection, schedule: Q03HX040 (ip), vehicle: saline 100 % of control | dose: 1.0 mg/kg/injection, schedule: Q## X001 (ip), vehicle: carboxymethylcellulose (CMC) 106 % of control | dose: 1.33 mg/kg/injection, schedule: Q#B X003 (ip), vehicle: carboxymethylcellulose (CMC) 110 % of control | dose: 1.56 mg/kg/injection, schedule: Q01DX009 (ip), vehicle: carboxymethylcellulose (CMC) 105 % of control | dose: 1.56 mg/kg/injection, schedule: Q03HX024 (ip), vehicle: carboxymethylcellulose (CMC) 120 % of control | dose: 1.56 mg/kg/injection, schedule: Q03HX040 (ip), vehicle: carboxymethylcellulose (CMC) 119 % of control | dose: 2.0 mg/kg/injection, schedule: Q01DX Z (ip), vehicle: carboxymethylcellulose (CMC) 124 % of control | dose: 2.0 mg/kg/injection, schedule: Q04DX004 (ip), vehicle: Klucel (hydroxypropylcellulose) (HPC) 94 % of control | dose: 2.66 mg/kg/injection, schedule: Q#B X003 (ip), vehicle: carboxymethylcellulose (CMC) 121 % of control | dose: 2.8 mg/kg/injection, schedule: Q01DX015 (ip), vehicle: carboxymethylcellulose (CMC) 112 % of control | dose: 3.12 mg/kg/injection, schedule: Q01DX005 (ip), vehicle: carboxymethylcellulose (CMC) 113 % of control | dose: 4.0 mg/kg/injection, schedule: Q01DX009 (oral), vehicle: saline 112 % of control | dose: 4.0 mg/kg/injection, schedule: Q03HX003 (oral), vehicle: saline 111 % of control | dose: 4.2 mg/kg/injection, schedule: Q## X015 (ip), vehicle: carboxymethylcellulose (CMC) 113 % of control | dose: 4.4 mg/kg/injection, schedule: Q04DX004 (ip), vehicle: Klucel (hydroxypropylcellulose) (HPC) 113 % of control | dose: 5.0 mg/kg/injection, schedule: Q## X032 (ip), vehicle: carboxymethylcellulose (CMC) 106 % of control and 110 % of control | dose: 6.0 mg/kg/injection, schedule: Q## X008 (ip), vehicle: carboxymethylcellulose (CMC) 108 % of control | dose: 6.25 mg/kg/injection, schedule: Q01DX001 (ip), vehicle: Klucel (hydroxypropylcellulose) (HPC) 116 % of control | dose: 6.25 mg/kg/injection, schedule: Q01DX001 (ip), vehicle: carboxymethylcellulose (CMC) 109 % of control | dose: 6.25 mg/kg/injection, schedule: Q01DX001 (oral), vehicle: carboxymethylcellulose (CMC) 122 % of control | dose: 6.25 mg/kg/injection, schedule: Q07DX Z (ip), vehicle: carboxymethylcellulose (CMC) 112 % of control | dose: 7.2 mg/kg/injection, schedule: Q## X032 (ip), vehicle: carboxymethylcellulose (CMC) 110 % of control | dose: 7.5 mg/kg/injection, schedule: Q01DX001 (iv), vehicle: Klucel (hydroxypropylcellulose) (HPC) 114 % of control | dose: 8.0 mg/kg/injection, schedule: Q03HX003 (oral), vehicle: saline 120 % of control | dose: 8.0 mg/kg/injection, schedule: Q## X032 (ip), vehicle: carboxymethylcellulose (CMC) 113 % of control
